# Assay results taken from patent US20080027139A1, “Use of Alpha-Ketoglutarate and Related Compounds” (priority 2004, published 2008).
# Read-outs that look alike come from different tables or passages of the source.
# Experiments:
# [1] = tested on: Wistar rats with diet-induced hypercholesterolaemia; settings: day 120; AKG doses 0.1 and 1 from day 61 for 60 days; p<0.05
# From the text: Afterwards all animals received fodder enriched with 1% cholesterol (Sigma-Aldrich, Germany) and 10% lard in order to obtain hypercholesterolaemia. • 12 rats (6 females and 6 males) were killed on day 0 as an introduction control. • 12 rats (6 females and 6 males) were killed at day 30. • 12 rats (6 females and 6 males) were killed at day 60.
# Remaining 48 rats were divided into 3 groups and the experiment continued for another 60 days on cholesteremic diet: • 1. Placebo group—24 rats (12 females and 12 males) • 2. 1 g AKG group—12 rats (6 females and 6 males) • 3. 0.1 g AKG group—12 rats (6 females and 6 males)
# During the first 60 days of using cholesterol and lard enriched diet, the lipid profile was checked three times to determine the concentration of the entire cholesterol, the fraction of LDL and HDL and triglycerides. Measuring tests were performed a day before the said diet was commenced (day 0) and subsequently after 30 and 60 days of the application of the said diet. On the sixty first day of the experiment animals were divided into two groups: one receiving the placebo solution and the other receiving AKG solution (AKG in doses 0.1 and 1 (Table 9). All the time animals continued to receive experimental fodder. During the period when placebo and AKG solutions were administered, the lipid profile was checked on the 120th day of the experiment. […]
# [2] = tested on: sham-operated (SHO) and ovariectomized (OVX) Wistar female rats
# Method: A study was conducted on Wistar female rats kept in standard weather conditions. […] Afterwards the female rates were randomly divided into 2 groups: ovariectomy were performed in all animals in group one (OVX) and placebo operation were done in the second group (SHO). Surgical procedures were performed under general anesthesia (rometare, ketamine and atropine in doses 2, 10 and 0.05 mg/kg of bodily weight respectively.
# Studies were conducted on the animals from the two groups: females received experimental solutions from the seventh day following the operation (simulation of the first period of the lack of activity of the ovarian hormones) (Experiment I 1), females aged 7 months with a 5 month period in which there was no activity of hormonal ovaries (simulation of the period with a prolonged absence of the activity of ovarian hormones) (Experiment I 2) (Tab. 2).
# In each of Experiments I1 and I2 40 animals was used for each experimental doses making a total of 240 animals.
# Blood samples were collected immediately after slaughter, and the plasma removed by centrifugation was stored in a safe place for further biochemical analyses.
# The entire cholesterol concentration was determined by means of commonly available analytical equipment using the spectrophotometric method.
# [3] = tested on: volunteers with a relatively high level of cholesterol
# From the text: The experiment lasted for the total of 42 days. […] During the experiment no quantitative or qualitative restrictions regarding the diet were introduced. In the period from day 1 to day 28 the patients' lipid profile was checked every seven days in order to determine the concentration of cholesterol, fractions of LDL and HDL and triglycerides. […] Subsequent measurements of the lipid profile were taken on 42nd day of the experiment.
# [4] = Volunteer 1, 1st week, chewable tablets of 1.28 g calcium alpha-ketoglutarate (1 g AKG), two tablets three times a day, day 1-28
# [5] = Volunteer 1, 2nd week, calcium alpha-ketoglutarate tablets (1 g AKG), two tablets three times a day
# [6] = Volunteer 1, 3rd week, calcium alpha-ketoglutarate tablets (1 g AKG), two tablets three times a day
# [7] = Volunteer 1, 4th week, calcium alpha-ketoglutarate tablets (1 g AKG), two tablets three times a day
# [8] = Volunteer 1, 6th week, after 2 weeks without AKG
# [9] = Volunteer 2, 1st week, chewable tablets of 1.28 g calcium alpha-ketoglutarate (1 g AKG), two tablets three times a day, day 1-28
# [10] = Volunteer 2, 2nd week, calcium alpha-ketoglutarate tablets (1 g AKG), two tablets three times a day
# [11] = Volunteer 2, 3rd week, calcium alpha-ketoglutarate tablets (1 g AKG), two tablets three times a day
# [12] = Volunteer 2, 4th week, calcium alpha-ketoglutarate tablets (1 g AKG), two tablets three times a day
# [13] = Volunteer 2, 6th week, after 2 weeks without AKG
# [14] = two volunteers, after a 14 day break in administering the preparation
smiles,measurement,setting,value
"O=C(O)CCC(=O)C(=O)O [AKG, alpha-ketoglutaric acid]",effect on concentration of HDL (in words),[1],increase
same,effect on concentration of the entire cholesterol (in words),"[2]; OVX females, AKG dose 0.01 during 60 days, Experiment I-1, p=0.04, reaching the level of the control group",statically significant decrease
same,effect on concentration of the entire cholesterol (in words),"[2]; both doses 0.01 and 0.1, OVX and SHO groups, Experiment I-2 (prolonged lack of ovarian hormones)",statistically significant decrease
same,effect on concentration of the entire cholesterol (in words),"[2]; dose 1, females after ovariectomy relative to the control group, long-term absence of ovarian hormones (Experiment I-2)",decreased
same,effect on concentration of the entire cholesterol (in words),"[2]; dose 1, females after ovariectomy relative to the control group, short-term absence of ovarian hormones (Experiment I-1)",decreased
same,HDL level,[3]; [4],45 mg/dL
same,Total cholesterol level,[3]; [4],194 mg/dL
same,Triglycerides level,[3]; [4],197 mg/dL
same,HDL level,[3]; [5],41 mg/dL
same,Total cholesterol level,[3]; [5],196 mg/dL
same,Triglycerides level,[3]; [5],304 mg/dL
same,HDL level,[3]; [6],42 mg/dL
same,Total cholesterol level,[3]; [6],171 mg/dL
same,Triglycerides level,[3]; [6],269 mg/dL
same,HDL level,[3]; [7],48 mg/dL
same,Total cholesterol level,[3]; [7],157 mg/dL
same,Triglycerides level,[3]; [7],259 mg/dL
same,HDL level,[3]; [8],33 mg/dL
same,Total cholesterol level,[3]; [8],197 mg/dL
same,Triglycerides level,[3]; [8],375 mg/dL
same,HDL level,[3]; [9],35 mg/dL
same,Total cholesterol level,[3]; [9],190 mg/dL
same,Triglycerides level,[3]; [9],122 mg/dL
same,HDL level,[3]; [10],44 mg/dL
same,Total cholesterol level,[3]; [10],213 mg/dL
same,Triglycerides level,[3]; [10],101 mg/dL
same,HDL level,[3]; [11],40 mg/dL
same,Total cholesterol level,[3]; [11],199 mg/dL
same,Triglycerides level,[3]; [11],199 mg/dL
same,HDL level,[3]; [12],42 mg/dL
same,Total cholesterol level,[3]; [12],189 mg/dL
same,Triglycerides level,[3]; [12],187 mg/dL
same,HDL level,[3]; [13],40 mg/dL
same,Total cholesterol level,[3]; [13],215 mg/dL
same,Triglycerides level,[3]; [13],220 mg/dL
same,effect on concentration of HDL (in words),"[3]; two volunteers, 28 days of tablets containing 1 g of AKG, 2 tablets 3 times a day",No significant effect
same,effect on concentration of the entire cholesterol (in words),"[3]; two volunteers, after 28 days of tablets containing 1 g of AKG, 2 tablets 3 times a day",decrease
same,change of concentration of HDL fraction after stopping (in words),[3]; [14],statistically significant decrease
same,change of concentration of the entire cholesterol after stopping (in words),[3]; [14],increased
same,change of concentration of triglycerides after stopping (in words),[3]; [14],significant increase
same,effect on concentration of triglycerides (in words),"[3]; two volunteers, from day 1 to day 28 of AKG tablets",increase
